# Experimental data reported in patent US20240415819A1, “MACROCYCLIC COMPOUNDS AS PROTEASOME SUBUNIT BETA TYPE-5 INHIBITORS” (Lead Discovery Center GmbH, priority 2021, published 2024).
# Tests used:
# HT-29 cells = assay: CellTiter-Glo luminescent cell viability assay with HT-29 cells (72h incubation); type: cell-based, human; conditions: Homo sapiens, HT-29, HT29 cells, read-out: CTG HT29
# Method in brief: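 Viability read as CellTiter-Glo luminescence after 72 h compound exposure, with 10 μM staurosporine and DMSO as control wells. Seeding 400 cells per well, compound added 24 h post-plating; IC50 from curve fitting.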
# [1] = biological target: T1, β5 subunit of the human immunoproteasome (IPS) (Homo sapiens, UniProt P28062); assay: β5 inhibition assay, human immunoproteasome (Suc-LLVY-AMC); type: biochemical; conditions: IC50 class, Suc-LLVY-AMC substrate
# T1 construct: purchased Boston Biochem E-370
# Method in brief: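 β5 activity is read as liberated AMC fluorescence (355/460 nm) after 4 h dark reaction at RT with 22.6 μM Suc-LLVY-AMC, stopped by 1 μM bortezomib. Beforehand, 1 nM human IPS and compound sat 10 min at RT in HEPES pH 7.5 buffer containing NaCl, 0.02% SDS and DTT.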
# hPMBC = assay: Chymotrypsin-like ProteasomeGlo assay in hPBMC; type: cell-based; conditions: Homo sapiens; read-out: Pglo hPBMC
# Method in brief: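 IC50 derived from luminescent chymotrypsin-like proteasome activity (Suc-LLVY-Glo substrate plus luciferin detection reagent). Measured after 105 min compound exposure at 37 °C, 5% CO2. Cells were human B cells purified from buffy-coat PBMC.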
Structure (SMILES),IC50 (HT-29 cells) [nM],IC50 [1] [nM],IC50 (hPMBC) [nM]
"Cc1ccc2cc1CNC(=O)[C@H](CCc1ccccc1)NC(=O)[C@@H](NC(=O)OCc1ccccc1)CC(=O)N1CCC[C@H](CCO2)C1 [Compound 292, benzyl ((13R,9S,12S)-5^4-methyl-8,11,14-trioxo-9-phenethyl-4-oxa-7,10-diaza-1(3,1)-piperidina-5(1,3)-benzenacyclotetradecaphane-12-yl)carbamate]",< 100,< 100,< 100
"CCC(C(=O)N[C@H]1CC(=O)N2CCCC(CCOc3ccc(C)c(c3)CNC(=O)[C@H](CCc3ccccc3)NC1=O)C2)c1ccc(OC)c(OC)c1 (stereo partly drawn) [Compound 64, 2-(3,4-dimethoxyphenyl)-N-((9S,12S)-5^4-methyl-8,11,14-trioxo-9-phenethyl-4-oxa-7,10-diaza-1(3,1)-piperidina-5(1,3)-benzenacyclotetradecaphane-12-yl)butanamide]",< 100,< 100,< 100
"CC(=O)N[C@H]1CC(=O)N2CCCC(CCOc3ccc(C)c(c3)CNC(=O)C(c3cnn(Cc4ccccc4)c3)NC1=O)C2 (stereo partly drawn) [Compound 565, N-((12S)-9-(1-benzyl-1H-pyrazol-4-yl)-5^4-methyl-8,11,14-trioxo-4-oxa-7,10-diaza-1(3,1)-piperidina-5(1,3)-benzenacyclotetradecaphane-12-yl)acetamide]",< 100,< 100,100 to 500
"Cc1ccc2cc1CNC(=O)[C@H](CCc1ccccc1)NC(=O)[C@@H](NC(=O)OCC1(C)COC1)CC(=O)N1CCCC(CCO2)C1 (stereo partly drawn) [Compound 293, (3-methyloxetan-3-yl)methyl ((9S,12S)-5^4-methyl-8,11,14-trioxo-9-phenethyl-4-oxa-7,10-diaza-1(3,1)-piperidina-5(1,3)-benzenacyclotetradecaphane-12-yl)carbamate]",< 100,< 100,< 100
"Cc1ccc2cc1CNC(=O)[C@H](CCc1ccccc1)NC(=O)[C@H](NC(=O)OCc1ccccc1)CC(=O)N1CCC[C@H](CCO2)C1 [Compound 291, benzyl ((13R,9S,12R)-5^4-methyl-8,11,14-trioxo-9-phenethyl-4-oxa-7,10-diaza-1(3,1)-piperidina-5(1,3)-benzenacyclotetradecaphane-12-yl)carbamate]",< 100,< 100,1000 to 5000
